Experimental data taken from patent US10703748B2, “Diazanaphthalen-3-yl carboxamides and preparation and use thereof” (Samumed, LLC, priority 2017, dated 2020).

Columns and labels:
DYRK1A kinase = DYRK1A kinase (Homo sapiens, UniProt Q13627); assay: DYRK1A kinase activity (Ser/Thr 18 peptide Z-lyte FRET assay); assay type: biochemical; conditions: recombinant DYRK1A, 30 μM ATP, one hour at room temperature;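 note: kinase activity read as coumarin/fluorescein emission ratio after development step, with unphosphorylated and phosphorylated peptide forms setting 0% and 100% controls, values from dose-response curves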
GSK3β kinase = GSK3β kinase (Homo sapiens, UniProt P49841); assay: GSK3β kinase activity (Ser/Thr 09 peptide Z-lyte FRET assay); assay type: biochemical; conditions: recombinant kinase, 46 μM ATP, one hour at room temperature; read-out: EC50
[1] = tested on: SW480 colon carcinoma cells; assay: Cell viability assay (CellTiter-Glo); conditions: for inhibition at 10 µM: SW480, read-out: percent inhibition at 10 μM
[2] = tested on: Wnt-responsive Sp5-Luc reporter in SW480 colon carcinoma cells; assay: Screening assay for Wnt activity (Sp5-Luc reporter gene assay); conditions: for inhibition at 10 µM: SW480, read-out: percent inhibition at 10 μM
IL-6 = IL-6 inhibition in LPS-stimulated human peripheral blood mononuclear cells (HTRF); conditions: for inhibition at 10 µM: read-out: percentage in parentheses after EC50 >10
[3] = tested on: α-smooth muscle actin (aSMA) positive LL29 cells; assay: Inhibition of the fibrotic process: αSMA staining in TGF-β1 treated LL29 fibroblasts from IPF patients; conditions: for inhibition at 10 µM: read-out: percentage in parentheses after EC50 >10
Description: Each compound was dissolved in DMSO as a 10 mM stock and used to prepare compound source plates. […] LL29 cells were plated at 1,500 cells/well in 70 μL/well F12 medium supplemented with 1% Fetal Bovine Serum. […] Wells treated with TGF-β1 and containing DMSO were used as positive control, and cells with only DMSO were negative control. Cells were incubated at 37° C. and 5% CO2 for 4 days. Following incubation for 4 days, SYTOX green nucleic acid stain (Life Technologies [Thermo Fisher Scientific]) was added to the wells at a final concentration of 1 μM and incubated at room temperature for 30 min. Cells were then fixed using 4% formaldehyde (Electron Microscopy Sciences), washed 3 times with PBS followed by blocking and permeabilization using 3% Bovine Serum Albumin (BSA; Sigma) and 0.3% Triton X-100 (Sigma) in PBS.

GSK3β kinase, sequence (P49841 whole entry): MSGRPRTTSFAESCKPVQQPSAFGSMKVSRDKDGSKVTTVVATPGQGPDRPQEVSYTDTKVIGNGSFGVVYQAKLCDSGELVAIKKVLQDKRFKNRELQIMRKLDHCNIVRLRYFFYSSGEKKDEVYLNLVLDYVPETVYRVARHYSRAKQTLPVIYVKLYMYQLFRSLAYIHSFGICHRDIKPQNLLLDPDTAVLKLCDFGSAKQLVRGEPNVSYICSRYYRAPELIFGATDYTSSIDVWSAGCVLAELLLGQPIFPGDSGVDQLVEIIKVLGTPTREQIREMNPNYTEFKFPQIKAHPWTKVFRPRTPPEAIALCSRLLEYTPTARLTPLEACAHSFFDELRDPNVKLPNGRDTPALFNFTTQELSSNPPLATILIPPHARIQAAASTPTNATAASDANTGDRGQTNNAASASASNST

| EC50 (DYRK1A kinase) [µM] | EC50 (GSK3β kinase) [µM] | EC50 ([1]; Homo sapiens, SW480, 96 h) [µM] | EC50 ([2]; Homo sapiens, SW480) [µM] | EC50 (IL-6; Homo sapiens, PBMC, 22 h) [µM] | SMILES | EC50 ([3]; Homo sapiens, Fibroblast, 96 h) [µM] | inhibition at 10 µM ([2]; Homo sapiens) [%] | inhibition at 10 µM (IL-6; Homo sapiens, PBMC) [%] | EC50 ([1]; SW480 cells, four days, CellTiter-Glo) [µM] | percent inhibition at 10 μM ([1]; at 10 μM, given for EC50 of >10 μM, SW480 cell viability) [%] | EC50 ([2]; SW480 Sp5-Luc reporter cells, 36 to 48 hours) [µM] | EC50 (IL-6; huPBMCs, LPS 50 ng/mL, 22 hours, curves starting from 10 μM) [µM] | percentage in parentheses after EC50 >10 (IL-6; huPBMCs, LPS, given beside >10 μM, meaning not given) [%] | EC50 ([3]; LL29 fibroblasts from IPF patients, TGF-β1 20 ng/mL, 4 days, curves from 10 μM to 0.94 nM) [µM] | percentage in parentheses after EC50 >10 ([3]; LL29 fibroblasts, TGF-β1, given beside >10 μM, meaning not given) [%] | inhibition at 10 µM ([1]; Homo sapiens) [%] | inhibition at 10 µM ([3]; Homo sapiens, Fibroblast) [%] |
| --- | --- | --- | --- | --- | --- | --- | --- | --- | --- | --- | --- | --- | --- | --- | --- | --- | --- |
| 1.01 | > 10 | > 10 | > 10 | 6.73 | CN1CCC(C(=O)Nc2cc3nc(-c4cnsc4)ccc3cn2)CC1 [Compound 692, N-(2-(Isothiazol-4-yl)-1,6-naphthyridin-7-yl)-1-methylpiperidine-4-carboxamide] | > 10 | 38.6 |  |  |  |  |  |  |  |  | 28.7 | 3.8 |
| 0.203 | > 10 | 4.38 | 3.97 | > 10 | CC(C)Nc1cncc(-c2ccc3cnc(NC(=O)c4cn(C5CCNCC5)nn4)cc3n2)n1 [Compound 862, N-(2-(6-(isopropylamino)pyrazin-2-yl)-1,6-naphthyridin-7-yl)-1-(piperidin-4-yl)-1H-1,2,3-triazole-4-carboxamide] | 5.03 |  | 5.6 |  |  |  |  |  |  |  |  |  |
| 0.388 | > 10 | > 10 | > 10 | > 10 | CC(C)Nc1cncc(-c2ccc3cnc(NC(=O)c4cn(C5CCN(CCF)CC5)nn4)cc3n2)n1 [Compound 863, 1-(1-(2-fluoroethyl)piperidin-4-yl)-N-(2-(6-(isopropylamino)pyrazin-2-yl)-1,6-naphthyridin-7-yl)-1H-1,2,3-triazole-4-carboxamide] | > 10 | 29.7 | 7 |  |  |  |  |  |  |  | 27.5 | 41 |
| 0.142 | > 10 | 2.06 | 4.28 | > 10 | O=C(Nc1cc2nc(-c3cncc(OCC4CNC4)n3)ccc2cn1)c1ccc(F)cc1 [Compound 892, N-(2-(6-(Azetidin-3-ylmethoxy)pyrazin-2-yl)-1,6-naphthyridin-7-yl)-4-fluorobenzamide] | 3.98 |  | 2.5 |  |  |  |  |  |  |  |  |  |
| > 10 | > 10 | > 10 | > 10 | > 10 | Cn1cc(-c2ccc3cnc(NC(=O)[C@H]4CCCN4)nc3c2)cn1 [Compound 969, (R)—N-(7-(1-Methyl-1H-pyrazol-4-yl)quinazolin-2-yl)pyrrolidine-2-carboxamide] | > 10 | 4.2 | 4.1 |  |  |  |  |  |  |  | 16.3 | 40.2 |
| 0.171 | 0.087 | > 10 | > 10 | > 10 | CC(C(=O)Nc1ncc2ccc(-c3cnn(C)c3)cc2n1)N1CCCCC1 (stereo not drawn) [Compound 978, N-(7-(1-Methyl-1H-pyrazol-4-yl)quinazolin-2-yl)-2-(piperidin-1-yl)propanamide] | 2.73 | 37.2 | 6.9 |  |  |  |  |  |  |  | 50 |  |
| > 10 | > 10 | > 10 | > 10 | > 10 | Cn1cc(-c2ccc3cnc(NC(=O)C4CCN(S(C)(=O)=O)CC4)nc3c2)cn1 [Compound 979, N-(7-(1-methyl-1H-pyrazol-4-yl)quinazolin-2-yl)-1-(methylsulfonyl)piperidine-4-carboxamide] | > 10 | 20.3 | 6.4 |  |  |  |  |  |  |  | 16.7 | 23.2 |
| 0.075 | 0.532 | > 10 | > 10 | > 10 | CN1CCCN(CC(=O)Nc2ncc3ccc(-c4cnn(C)c4)cc3n2)CC1 [Compound 1013, 2-(4-Methyl-1,4-diazepan-1-yl)-N-(7-(1-methyl-1H-pyrazol-4-yl)quinazolin-2-yl)acetamide] | > 10 | 0 | 3.1 |  |  |  |  |  |  |  | 10.5 | 12.4 |
| 0.045 | 0.238 | > 10 | 2.91 | > 10 | CC(C)CN1CCC(CC(=O)Nc2ncc3ccc(-c4cnn(C)c4)cc3n2)C1 (stereo not drawn) [Compound 1029, 2-(1-Isobutylpyrrolidin-3-yl)-N-(7-(1-methyl-1H-pyrazol-4-yl)quinazolin-2-yl)acetamide] | > 10 |  | 3.2 |  |  |  |  |  |  |  | 38.5 | 28 |

More lines, now with the values behind:

| SMILES | EC50 (DYRK1A kinase) [µM] | EC50 (GSK3β kinase) [µM] | EC50 ([1]; Homo sapiens, SW480, 96 h) [µM] | EC50 ([2]; Homo sapiens, SW480) [µM] | EC50 (IL-6; Homo sapiens, PBMC, 22 h) [µM] | EC50 ([3]; Homo sapiens, Fibroblast, 96 h) [µM] | inhibition at 10 µM ([2]; Homo sapiens) [%] | inhibition at 10 µM (IL-6; Homo sapiens, PBMC) [%] | EC50 ([1]; SW480 cells, four days, CellTiter-Glo) [µM] | percent inhibition at 10 μM ([1]; at 10 μM, given for EC50 of >10 μM, SW480 cell viability) [%] | EC50 ([2]; SW480 Sp5-Luc reporter cells, 36 to 48 hours) [µM] | EC50 (IL-6; huPBMCs, LPS 50 ng/mL, 22 hours, curves starting from 10 μM) [µM] | percentage in parentheses after EC50 >10 (IL-6; huPBMCs, LPS, given beside >10 μM, meaning not given) [%] | EC50 ([3]; LL29 fibroblasts from IPF patients, TGF-β1 20 ng/mL, 4 days, curves from 10 μM to 0.94 nM) [µM] | percentage in parentheses after EC50 >10 ([3]; LL29 fibroblasts, TGF-β1, given beside >10 μM, meaning not given) [%] | inhibition at 10 µM ([1]; Homo sapiens) [%] | inhibition at 10 µM ([3]; Homo sapiens, Fibroblast) [%] |
| --- | --- | --- | --- | --- | --- | --- | --- | --- | --- | --- | --- | --- | --- | --- | --- | --- | --- |
| Cn1cc(-c2ccc3cnc(NC(=O)c4coc(C5CCNCC5)n4)cc3n2)cn1 [Compound 241, N-(2-(1-Methyl-1H-pyrazol-4-yl)-1,6-naphthyridin-7-yl)-2-(piperidin-4-yl) oxazole-4-carboxamide] | 0.067 | 0.166 | 0.466 | 0.388 | 3.72 | 1.58 |  |  |  |  |  |  |  |  |  |  |  |
| CN1CCC(c2nc(C(=O)Nc3cc4nc(-c5cnn(C)c5)ccc4cn3)co2)CC1 [Compound 242, N-(2-(1-Methyl-1H-pyrazol-4-yl)-1,6-naphthyridin-7-yl)-2-(1-methylpiperidin-4-yl)oxazole-4-carboxamide] | 0.06 | 6.85 | 0.541 | 0.268 | 3.62 | 1.42 |  |  |  |  |  |  |  |  |  |  |  |
| CCN(CC)CC(=O)Nc1cc2nc(-c3cnn(C)c3CN3CCCCC3)ccc2cn1 [Compound 283, 2-(Diethylamino)-N-(2-(1-methyl-5-(piperidin-1-ylmethyl)-1H-pyrazol-4-yl)-1,6-naphthyridin-7-yl)acetamide] | 0.698 | 1.18 | 4.24 | > 10 | > 10 | 3.91 | 43.6 | 7.4 |  |  |  |  |  |  |  |  |  |
| Cn1cc(-c2ccc3cnc(NC(=O)C(C)(C)F)cc3n2)nn1 [Compound 333] |  |  |  |  |  |  |  |  | > 10 | 35.6 | 0.504 | > 10 | 5.4 | > 10 | 25.2 |  |  |
| Cn1cc(-c2ccc3cnc(NC(=O)C4CCN(CC5(C(F)(F)F)CC5)CC4)cc3n2)nn1 [Compound 347, N-(2-(1-Methyl-1H-1,2,3-triazol-4-yl)-1,6-naphthyridin-7-yl)-1-((1-(trifluoromethyl)cyclopropyl)methyl)piperidine-4-carboxamide] | 9.99 | > 10 | > 10 | > 10 | > 10 | > 10 | 28.7 | 4 |  |  |  |  |  |  |  | 10.7 | 20.7 |
| CNC(=O)c1ccc(C(=O)Nc2cc3nc(-c4cn(C)nn4)ccc3cn2)cn1 [Compound 372, N^2-Methyl-N^5-(2-(1-methyl-1H-1,2,3-triazol-4-yl)-1,6-naphthyridin-7-yl) pyridine-2,5-dicarboxamide] | 0.067 | 0.255 | > 10 | > 10 | > 10 | 3.64 | 48.7 | 0 |  |  |  |  |  |  |  | 23.2 |  |
| Cn1cncc1-c1ccc2cnc(NC(=O)C3CCC(F)(F)CC3)cc2n1 [Compound 400, 4,4-Difluoro-N-(2-(1-methyl-1H-imidazol-5-yl)-1,6-naphthyridin-7-yl) cyclohexane-1-carboxamide] | 0.121 | 0.036 | 2.37 | 1.35 | 3.66 | 1.48 |  |  |  |  |  |  |  |  |  |  |  |
| Cn1cncc1-c1ccc2cnc(NC(=O)c3ccc(F)cc3)cc2n1 [Compound 448, 4-Fluoro-N-(2-(1-methyl-1H-imidazol-5-yl)-1,6-naphthyridin-7-yl)benzamide] | > 10 | > 10 | > 10 | > 10 | 5.13 | > 10 | 2.8 |  |  |  |  |  |  |  |  | 16.2 | 23 |
| CN1CCC(Oc2cccc(C(=O)Nc3cc4nc(-c5cnco5)ccc4cn3)c2)CC1 [Compound 591, 3-((1-Methylpiperidin-4-yl)oxy)-N-(2-(oxazol-5-yl)-1,6-naphthyridin-7-yl)benzamide] | > 10 | > 10 | 3.25 | 6.06 | > 10 | > 10 |  | 0 |  |  |  |  |  |  |  |  | 13.3 |
| Cc1ncc(-c2ccc3cnc(NC(=O)N4CCC(N(C)C)CC4)cc3n2)s1 [Compound 662, 4-(Dimethylamino)-N-(2-(2-methylthiazol-5-yl)-1,6-naphthyridin-7-yl) piperidine-1-carboxamide] | > 10 | > 10 | > 10 | > 10 | > 10 | 7.65 | 26 | 10.5 |  |  |  |  |  |  |  | 17.3 |  |
